Several values for one entry are separate records, joined by “and”; a condition that tells them apart may be missing. Identical values can stand only once. Inconclusive results and toxic doses are left out. Rule as the data show it: active = T/C of 150% or more; inactive = T/C below 125%.
System: L1210 leukemia ip in BDF1 mice, survival T/C
Test: NCI In Vivo Anticancer Drug Screen. Data for tumor model L1210 Leukemia (intraperitoneal) in B6D2F1 (BDF1) mice
Details: endpoint: mean survival time, higher = longer survival
Method in brief: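 Transplantable tumor model; survival measured in treated vs vehicle control mice. Value = treated/control.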

[1] = dose: 100.0 mg/kg/injection, schedule: Q04DX003 (ip), vehicle: saline with Tween-80
[2] = dose: 200.0 mg/kg/injection, schedule: Q04DX003 (ip), vehicle: saline with Tween-80
[3] = dose: 400.0 mg/kg/injection, schedule: Q04DX003 (ip), vehicle: saline with Tween-80
[4] = dose: 100.0 mg/kg/injection, schedule: Q01DX001 (ip), vehicle: saline
[5] = dose: 200.0 mg/kg/injection, schedule: Q01DX001 (ip), vehicle: saline
[6] = dose: 400.0 mg/kg/injection, schedule: Q01DX001 (ip), vehicle: saline
[7] = dose: 100.0 mg/kg/injection, schedule: Q01DX009 (ip), vehicle: Klucel (hydroxypropylcellulose) (HPC)
[8] = dose: 200.0 mg/kg/injection, schedule: Q01DX009 (ip), vehicle: Klucel (hydroxypropylcellulose) (HPC)
[9] = dose: 100.0 mg/kg/injection, schedule: Q04DX002 (ip), vehicle: saline with Tween-80
[10] = dose: 200.0 mg/kg/injection, schedule: Q04DX002 (ip), vehicle: saline with Tween-80
[11] = dose: 400.0 mg/kg/injection, schedule: Q04DX002 (ip), vehicle: saline with Tween-80
[12] = dose: 100.0 mg/kg/injection, schedule: Q01DX009 (ip), vehicle: saline with Tween-80
[13] = dose: 200.0 mg/kg/injection, schedule: Q01DX009 (ip), vehicle: saline with Tween-80
[14] = dose: 400.0 mg/kg/injection, schedule: Q01DX009 (ip), vehicle: saline with Tween-80
[15] = dose: 100.0 mg/kg/injection, schedule: Q04DX003 (ip), vehicle: Klucel (hydroxypropylcellulose) (HPC)
[16] = dose: 200.0 mg/kg/injection, schedule: Q04DX003 (ip), vehicle: Klucel (hydroxypropylcellulose) (HPC)
[17] = dose: 100.0 mg/kg/injection, schedule: Q01DX001 (ip), vehicle: Klucel (hydroxypropylcellulose) (HPC)
[18] = dose: 200.0 mg/kg/injection, schedule: Q01DX001 (ip), vehicle: Klucel (hydroxypropylcellulose) (HPC)
[19] = dose: 100.0 mg/kg/injection, schedule: Q01DX001 (ip), vehicle: carboxymethylcellulose (CMC)
[20] = dose: 200.0 mg/kg/injection, schedule: Q01DX001 (ip), vehicle: carboxymethylcellulose (CMC)
[21] = dose: 400.0 mg/kg/injection, schedule: Q01DX001 (ip), vehicle: carboxymethylcellulose (CMC)
[22] = dose: 50.0 mg/kg/injection, schedule: Q01DX009 (ip), vehicle: saline with Tween-80
[23] = dose: 50.0 mg/kg/injection, schedule: Q01DX009 (ip), vehicle: saline
[24] = dose: 100.0 mg/kg/injection, schedule: Q01DX009 (ip), vehicle: saline
[25] = dose: 100.0 mg/kg/injection, schedule: Q04DX003 (ip), vehicle: saline
[26] = dose: 200.0 mg/kg/injection, schedule: Q04DX003 (ip), vehicle: saline

Measured: T/C

N#CC(C#N)=Cc1cc2c3c(c1)CCCN3CCC2
inactive: dose: 50.0 mg/kg/injection, schedule: Q04DX003 (ip), vehicle: saline with Tween-80 103 % of control | [1] 109 % of control | [2] 92 % of control | [3] 98 % of control

CNC(=O)Nc1nc2ccc([N+](=O)[O-])cc2[nH]1
inactive: [4] 105 % of control | [5] 103 % of control | [6] 97 % of control

c1ccc([P+](Cc2cccc3c2Cc2ccccc2-3)(c2ccccc2)c2ccccc2)cc1
inactive: dose: 15.0 mg/kg/injection, schedule: Q01DX001 (ip), vehicle: carboxymethylcellulose (CMC) 104 % of control

Cc1c(Cl)cccc1NC(=O)c1c(Cl)c(Cl)c(Cl)c(Cl)c1C(=O)O
inactive: [7] 102 % of control | [8] 103 % of control

Cc1ccc(N=Cc2cc(Br)ccc2O)cc1Cl
inactive: [9] 107 % of control | [10] 107 % of control | [11] 96 % of control

O=S(=O)(Nc1ccc(Br)cc1)c1ccccc1
inactive: [12] 99 % of control | [1] 105 % of control | [13] 87 % of control | [2] 100 % of control | [14] 95 % of control | [3] 98 % of control

O=c1[nH]cc(COCC(F)(F)C(F)(F)C(F)(F)F)c(=O)[nH]1
inactive: dose: 50.0 mg/kg/injection, schedule: Q01DX005 (ip), vehicle: water 104 % of control | dose: 100.0 mg/kg/injection, schedule: Q01DX005 (ip), vehicle: water 93 % of control | dose: 200.0 mg/kg/injection, schedule: Q01DX005 (ip), vehicle: water 95 % of control | dose: 400.0 mg/kg/injection, schedule: Q01DX005 (ip), vehicle: water 87 % of control

CCCC(=O)Nc1cccc(OC(=O)NC)c1
inactive: [1] 90 % of control | [3] 88 % of control

Cn1nc(C#N)c2c(N)ncnc21
inactive: [4] 104 % of control | [5] 104 % of control | [6] 101 % of control

COC(=O)c1ccccc1N=NNc1ccccc1C(=O)OC
inactive: [9] 92 % of control | [15] 107 % of control | [10] 89 % of control | [16] 111 % of control | dose: 400.0 mg/kg/injection, schedule: Q04DX003 (ip), vehicle: Klucel (hydroxypropylcellulose) (HPC) 98 % of control

CC(=O)NC(C)Cc1ccc2c(c1)OCO2 (stereo not drawn)
inactive: [7] 102 % of control | [8] 107 % of control

O=C1C=C(N2CCOCC2)c2cccc3cccc1c23
inactive: dose: 50.0 mg/kg/injection, schedule: Q01DX001 (ip), vehicle: Klucel (hydroxypropylcellulose) (HPC) 106 % of control | [17] 104 % of control | [7] 94 % of control | [18] 98 % of control | [8] 96 % of control

CN1CCCC(OC(=O)c2cc3ccccc3s2)C1 (stereo not drawn)
inactive: [19] 101 % of control | [20] 106 % of control | [21] 98 % of control

CCOC(=O)C(Cl)CCl (stereo not drawn)
inactive: dose: 50.0 mg/kg/injection, schedule: Q01DX009 (ip), vehicle: Klucel (hydroxypropylcellulose) (HPC) 97 % of control | [7] 100 % of control | [15] 108 % of control | [8] 104 % of control | [16] 97 % of control

CC12CCCC(O)C1(O)CC(C(=O)O)CC2 (stereo not drawn)
inactive: [22] 100 % of control | [12] 96 % of control | [13] 96 % of control

Cn1nc(N)c2cc3c(=O)[nH]cnc3nc21
inactive: [17] 96 % of control | [18] 104 % of control | dose: 400.0 mg/kg/injection, schedule: Q01DX001 (ip), vehicle: Klucel (hydroxypropylcellulose) (HPC) 101 % of control

CCOC(=O)c1ccc(N(CCOS(C)(=O)=O)CCOS(C)(=O)=O)cc1
inactive: dose: 7.1 mg/kg/injection, schedule: Q01DX015 (ip), vehicle: saline 98 % of control | dose: 10.0 mg/kg/injection, schedule: Q01DX015 (ip), vehicle: saline 102 % of control | dose: 16.0 mg/kg/injection, schedule: Q01DX015 (ip), vehicle: saline 108 % of control | dose: 25.0 mg/kg/injection, schedule: Q01DX015 (ip), vehicle: saline 113 % of control | dose: 75.0 mg/kg/injection, schedule: Q01DX001 (ip), vehicle: saline 109 % of control | dose: 100.0 mg/kg/injection, schedule: Q01DX015 (ip), vehicle: saline 87 % of control | dose: 300.0 mg/kg/injection, schedule: Q01DX001 (ip), vehicle: saline 120 % of control | dose: 600.0 mg/kg/injection, schedule: Q01DX001 (ip), vehicle: saline 122 % of control | dose: 1000.0 mg/kg/injection, schedule: Q01DX001 (ip), vehicle: saline 116 % of control

Nc1ncnc2cc[nH]c12
inactive: dose: 88.0 mg/kg/injection, schedule: Q01DX001 (ip), vehicle: carboxymethylcellulose (CMC) 102 % of control and 104 % of control | dose: 133.0 mg/kg/injection, schedule: Q01DX001 (ip), vehicle: carboxymethylcellulose (CMC) 96 % of control and 104 % of control | [20] 102 % of control and 106 % of control

CC(=O)Nc1c2ccccc2nc2ccccc12
inactive: [9] 90 % of control | [10] 97 % of control | [11] 90 % of control

Cn1c(O)c(C=N)c(=O)n(C)c1=O
inactive: dose: 25.0 mg/kg/injection, schedule: Q01DX009 (ip), vehicle: saline 101 % of control | [23] 100 % of control | [24] 87 % of control | [25] 98 % of control

O=C(Nc1ccc(F)cc1)OCC1CCCO1 (stereo not drawn)
inactive: [19] 100 % of control | dose: 100.0 mg/kg/injection, schedule: Q01DX009 (ip), vehicle: carboxymethylcellulose (CMC) 102 % of control and 103 % of control | dose: 100.0 mg/kg/injection, schedule: Q04DX002 (ip), vehicle: carboxymethylcellulose (CMC) 100 % of control and 102 % of control | [20] 103 % of control | dose: 200.0 mg/kg/injection, schedule: Q01DX009 (ip), vehicle: carboxymethylcellulose (CMC) 92 % of control and 97 % of control | dose: 200.0 mg/kg/injection, schedule: Q04DX002 (ip), vehicle: carboxymethylcellulose (CMC) 95 % of control and 98 % of control | [21] 92 % of control | dose: 400.0 mg/kg/injection, schedule: Q01DX009 (ip), vehicle: carboxymethylcellulose (CMC) 96 % of control and 102 % of control | dose: 400.0 mg/kg/injection, schedule: Q04DX002 (ip), vehicle: carboxymethylcellulose (CMC) 92 % of control and 96 % of control

O=C(CC(O)(C(F)(F)Cl)C(F)(F)Cl)c1ccco1
inactive: [22] 98 % of control | [12] 98 % of control | [1] 103 % of control | [13] 95 % of control | [2] 90 % of control

Cc1cc([N+](=O)[O-])cc(C)c1N=CN(C)C
inactive: dose: 50.0 mg/kg/injection, schedule: Q01DX001 (ip), vehicle: saline 107 % of control | [4] 105 % of control | [5] 122 % of control | [6] 104 % of control

CCCCN=CC(C)(C)NCCCC
inactive: [23] 95 % of control | [24] 90 % of control | [25] 106 % of control | dose: 200.0 mg/kg/injection, schedule: Q01DX009 (ip), vehicle: saline 88 % of control | [26] 104 % of control

COc1ccc(-c2c(-c3ccccc3)oc3ccc4ccccc4c23)cc1
inactive: [12] 87 % of control | [13] 93 % of control | [14] 92 % of control

Cc1cc(N(CCCl)CCCl)ccc1C=Nc1ccc(-c2csc(Cc3ccccc3)n2)cc1
inactive: dose: 50.0 mg/kg/injection, schedule: Q01DX001 (ip), vehicle: carboxymethylcellulose (CMC) 105 % of control | [19] 103 % of control | [20] 116 % of control | [21] 97 % of control

CC(=O)OCc1ccc[nH]c1=O
inactive: [25] 104 % of control | [26] 98 % of control | dose: 400.0 mg/kg/injection, schedule: Q04DX003 (ip), vehicle: saline 104 % of control

CC1CC(=O)C=C(c2ccccc2)O1 (stereo not drawn)
inactive: dose: 75.0 mg/kg/injection, schedule: Q01DX009 (ip), vehicle: Klucel (hydroxypropylcellulose) (HPC) 101 % of control | dose: 150.0 mg/kg/injection, schedule: Q01DX009 (ip), vehicle: Klucel (hydroxypropylcellulose) (HPC) 101 % of control
